“Also recorded” adds a separate entry of the source. Where two headings read alike, the source gives them in different places.
Legend:
[1] = tested on: Penk mRNA; assay: Penk (proenkephalin) mRNA expression in cultured DRG neurons; type: cell-based; settings: exposure 6 hr, cultured rat DRG neurons
[2] = tested on: NaV channels; assay: Frequency (use)-dependent block of sodium current in DRG neurons; type: cell-based; settings: 5 μM, thirty test pulses at 10 Hz, listed as ReN 206
Description: Control DRG neurons were treated with 0.03% DMSO (squares). Thirty, identical test pulses were applied at 10 Hz. The difference in available current was calculated by dividing the peak current at any given pulse (pulseN) by the peak current in response to the initial pulse (pulsei). Data are from 5-6 cells per condition.
The ability to block Na^+ currents in an activity- or use-dependent manner is a useful property for drugs since it allows for preferential decreases in sodium channel availability during high—(i.e., hyperexcitable ‘pain’ neurons) but not low-frequency firing.

[3] = tested on: NaV1.7; type: cell-based, rat
[4] = tested on: other NaV1.x channels; assay: Whole-cell patch clamp, other NaV1.x channels; type: cell-based
[5] = tested on: spared nerve injury (SNI) rats; assay: Spared nerve injury (SNI) model of neuropathic pain; type: in vivo, rat
Description: FIG. 4: AZ194 reduces spared nerve injury (SNI) induced nociceptive behaviors. Rats received spared nerve injury (SNI) on the left hind paw. […] Right panel: Area under the curve (AUC), using the trapezoid method, for PWT (summary for data shown in the time course on the left) are shown. *p<0.05, one-way analysis of variance with Dunnett's post hoc analysis. Error bars represent mean±s.e.m.
AZ194 was evaluated for efficacy in the spared nerve injury (SNI) model (see, e.g., Decosterd I, & Woolf C J (2000) Pain 87: 149-158) of neuropathic pain. […] Such experiments also determined the AUC to assess effects over the full experimental duration.
Under isoflurane anesthesia (5% induction, 2.5% maintenance in 2 L/min air), skin on the lateral surface of the left hind thigh was incised. The biceps femoris muscle was bluntly dissected to expose the three terminal branches of the sciatic nerve (see, e.g., Decosterd I, & Woolf C J (2000) Pain 87: 149-158). Briefly, the common peroneal and tibial branches were tightly ligated with 4-0 silk and axotomized 2.0 mm distal to the ligation. Sham animals underwent the same operation; however the nerves were exposed and not ligated. Closure of the incision was made in two layers. The muscle was sutured once with 5-0 absorbable suture and skin was auto-clipped. Animals were allowed to recover for 5-7 days before any testing.

[6] = target: CRMP2 (Mus musculus, UniProt O08553); assay: 1D 1H STD NMR binding to CRMP2
Description: 1D ^1H STD NMR showing on-resonance spectrum for CRMP2 with probe AZ194. Asterisks correspond to protons. […] NMR was performed on an AVANCE III 400 Mhz specrometer equipped with a Bruker PABBO 400S1 probe and SampleJet carousel that can hold up to 96 NMR tubes. The on-resonance excitation was set at 0.81 ppm (to irradiate protein methyl groups) and off-resonance set to 30 ppm. A 15 ms spin-lock was used to suppress the protein signal, followed by the double PFG spin echo to remove residual water signal. Spectra processing and analysis were performed with Topspin3.1 and MestReNova 7.1.

[7] = tested on: NaV1.7 channels; assay: Sodium currents of sensory neurons incubated with compound for indicated times (direct block test); type: cell-based; parameters: dose or concentration left out as unconfirmed; settings: primary rat sensory neurons
Description: Primary rat sensory neurons were incubated for the indicated times with DMSO 0.1% or […] AZ194. Left: Bar graphs represent normalized peak sodium current density±s.e.m. from at least 14 cells per condition from 3 separate rats.*p<0.05, Kruskal-Wallis test. Middle: current voltage relationship of sodium currents from rat sensory neurons incubated for the indicated times with DMSO 0.1% or […] AZ194. Right: biophysical properties of inactivation were not altered by AZ194 at any of the time points versus control.
Primary rat sensory neurons were incubated for the indicated times with DMSO 0.1% or 5 mM AZ194.

[8] = tested on: TTX-S NaV1.7 currents; type: cell-based, human
[9] = target: hERG (Homo sapiens, UniProt Q12809); settings: 20 μM, hEK293 cells; listed as ReN 194
[10] = target: Ubc9 (Homo sapiens, UniProt P63279); assay: 1D 1H STD NMR binding to Ubc9
[11] = target: T1, CaV2.2 (Rattus norvegicus, UniProt Q02294); assay: Peak CaV2.2 currents in DRGs; type: cell-based; settings: 20 μM
T1 construct: endogenous in cells; host or cells: DRG neurons
T1 sequence (Q02294 whole entry): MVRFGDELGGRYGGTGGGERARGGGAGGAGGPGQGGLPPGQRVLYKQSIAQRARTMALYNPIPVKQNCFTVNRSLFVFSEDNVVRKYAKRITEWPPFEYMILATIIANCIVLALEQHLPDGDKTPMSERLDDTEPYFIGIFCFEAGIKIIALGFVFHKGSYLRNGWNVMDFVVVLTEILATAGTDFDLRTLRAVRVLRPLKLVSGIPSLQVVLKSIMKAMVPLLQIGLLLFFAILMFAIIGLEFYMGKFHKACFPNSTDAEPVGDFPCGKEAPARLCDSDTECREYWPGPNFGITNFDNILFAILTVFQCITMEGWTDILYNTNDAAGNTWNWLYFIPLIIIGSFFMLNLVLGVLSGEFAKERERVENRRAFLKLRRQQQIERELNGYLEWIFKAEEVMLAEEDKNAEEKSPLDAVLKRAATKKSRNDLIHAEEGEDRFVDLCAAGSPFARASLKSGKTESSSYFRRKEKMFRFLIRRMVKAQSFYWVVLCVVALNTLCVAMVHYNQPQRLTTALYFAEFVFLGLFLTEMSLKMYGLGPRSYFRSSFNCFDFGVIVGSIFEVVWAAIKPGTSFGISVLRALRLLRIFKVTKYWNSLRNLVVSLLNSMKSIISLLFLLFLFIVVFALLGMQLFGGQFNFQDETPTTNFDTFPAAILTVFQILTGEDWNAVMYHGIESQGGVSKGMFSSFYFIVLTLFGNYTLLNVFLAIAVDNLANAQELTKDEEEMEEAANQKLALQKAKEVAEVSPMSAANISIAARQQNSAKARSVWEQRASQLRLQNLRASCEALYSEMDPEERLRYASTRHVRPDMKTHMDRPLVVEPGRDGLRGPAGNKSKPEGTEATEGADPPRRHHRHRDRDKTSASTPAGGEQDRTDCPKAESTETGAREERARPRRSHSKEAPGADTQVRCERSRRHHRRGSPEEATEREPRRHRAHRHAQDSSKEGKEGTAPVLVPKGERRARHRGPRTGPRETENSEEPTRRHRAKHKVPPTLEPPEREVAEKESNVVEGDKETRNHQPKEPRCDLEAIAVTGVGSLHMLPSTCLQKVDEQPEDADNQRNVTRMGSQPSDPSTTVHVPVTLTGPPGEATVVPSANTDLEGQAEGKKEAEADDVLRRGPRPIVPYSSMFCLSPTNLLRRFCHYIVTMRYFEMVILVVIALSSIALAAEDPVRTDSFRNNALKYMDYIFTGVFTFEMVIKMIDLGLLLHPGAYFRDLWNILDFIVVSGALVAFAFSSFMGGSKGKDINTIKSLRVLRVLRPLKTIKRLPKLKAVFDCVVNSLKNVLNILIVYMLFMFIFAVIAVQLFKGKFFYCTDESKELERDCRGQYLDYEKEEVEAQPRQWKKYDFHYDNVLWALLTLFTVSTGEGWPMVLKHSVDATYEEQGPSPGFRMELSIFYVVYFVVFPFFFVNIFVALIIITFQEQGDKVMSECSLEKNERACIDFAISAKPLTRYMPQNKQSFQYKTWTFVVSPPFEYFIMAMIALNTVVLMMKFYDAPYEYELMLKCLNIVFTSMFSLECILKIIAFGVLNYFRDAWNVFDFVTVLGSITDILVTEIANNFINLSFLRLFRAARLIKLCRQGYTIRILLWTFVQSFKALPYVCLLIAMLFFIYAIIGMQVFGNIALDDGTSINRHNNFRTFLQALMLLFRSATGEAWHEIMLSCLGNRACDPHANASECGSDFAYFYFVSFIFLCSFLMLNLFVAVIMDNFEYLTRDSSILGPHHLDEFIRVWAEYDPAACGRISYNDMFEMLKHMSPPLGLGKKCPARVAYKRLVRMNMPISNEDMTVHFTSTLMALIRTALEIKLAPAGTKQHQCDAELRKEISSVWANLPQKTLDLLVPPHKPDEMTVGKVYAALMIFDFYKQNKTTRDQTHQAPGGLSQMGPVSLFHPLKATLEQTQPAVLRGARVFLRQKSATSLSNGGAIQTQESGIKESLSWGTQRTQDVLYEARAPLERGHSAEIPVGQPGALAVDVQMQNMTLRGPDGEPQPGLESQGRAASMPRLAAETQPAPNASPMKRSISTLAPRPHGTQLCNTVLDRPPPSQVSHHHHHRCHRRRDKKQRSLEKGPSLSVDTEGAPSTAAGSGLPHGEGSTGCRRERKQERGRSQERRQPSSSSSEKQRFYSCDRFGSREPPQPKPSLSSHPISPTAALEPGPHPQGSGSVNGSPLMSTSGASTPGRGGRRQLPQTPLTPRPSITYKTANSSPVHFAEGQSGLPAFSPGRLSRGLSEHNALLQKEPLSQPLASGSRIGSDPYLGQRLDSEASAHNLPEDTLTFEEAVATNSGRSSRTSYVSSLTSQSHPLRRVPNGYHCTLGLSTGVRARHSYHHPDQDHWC
T1 sequence (P54287 whole entry partner): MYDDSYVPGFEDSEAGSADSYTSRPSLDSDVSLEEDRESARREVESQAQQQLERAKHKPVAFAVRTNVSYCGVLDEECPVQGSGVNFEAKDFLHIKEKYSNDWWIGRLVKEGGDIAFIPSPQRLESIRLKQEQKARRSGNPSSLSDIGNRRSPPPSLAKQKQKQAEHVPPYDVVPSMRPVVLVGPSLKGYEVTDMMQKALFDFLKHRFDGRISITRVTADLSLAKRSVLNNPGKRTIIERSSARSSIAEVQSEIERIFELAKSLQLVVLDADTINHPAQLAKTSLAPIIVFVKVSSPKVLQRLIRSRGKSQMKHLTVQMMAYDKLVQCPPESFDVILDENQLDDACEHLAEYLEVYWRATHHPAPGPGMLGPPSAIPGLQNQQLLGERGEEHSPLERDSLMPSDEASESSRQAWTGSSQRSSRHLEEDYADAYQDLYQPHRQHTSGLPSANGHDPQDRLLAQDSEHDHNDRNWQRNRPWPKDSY
T1 sequence (P54290 25-1091 partner): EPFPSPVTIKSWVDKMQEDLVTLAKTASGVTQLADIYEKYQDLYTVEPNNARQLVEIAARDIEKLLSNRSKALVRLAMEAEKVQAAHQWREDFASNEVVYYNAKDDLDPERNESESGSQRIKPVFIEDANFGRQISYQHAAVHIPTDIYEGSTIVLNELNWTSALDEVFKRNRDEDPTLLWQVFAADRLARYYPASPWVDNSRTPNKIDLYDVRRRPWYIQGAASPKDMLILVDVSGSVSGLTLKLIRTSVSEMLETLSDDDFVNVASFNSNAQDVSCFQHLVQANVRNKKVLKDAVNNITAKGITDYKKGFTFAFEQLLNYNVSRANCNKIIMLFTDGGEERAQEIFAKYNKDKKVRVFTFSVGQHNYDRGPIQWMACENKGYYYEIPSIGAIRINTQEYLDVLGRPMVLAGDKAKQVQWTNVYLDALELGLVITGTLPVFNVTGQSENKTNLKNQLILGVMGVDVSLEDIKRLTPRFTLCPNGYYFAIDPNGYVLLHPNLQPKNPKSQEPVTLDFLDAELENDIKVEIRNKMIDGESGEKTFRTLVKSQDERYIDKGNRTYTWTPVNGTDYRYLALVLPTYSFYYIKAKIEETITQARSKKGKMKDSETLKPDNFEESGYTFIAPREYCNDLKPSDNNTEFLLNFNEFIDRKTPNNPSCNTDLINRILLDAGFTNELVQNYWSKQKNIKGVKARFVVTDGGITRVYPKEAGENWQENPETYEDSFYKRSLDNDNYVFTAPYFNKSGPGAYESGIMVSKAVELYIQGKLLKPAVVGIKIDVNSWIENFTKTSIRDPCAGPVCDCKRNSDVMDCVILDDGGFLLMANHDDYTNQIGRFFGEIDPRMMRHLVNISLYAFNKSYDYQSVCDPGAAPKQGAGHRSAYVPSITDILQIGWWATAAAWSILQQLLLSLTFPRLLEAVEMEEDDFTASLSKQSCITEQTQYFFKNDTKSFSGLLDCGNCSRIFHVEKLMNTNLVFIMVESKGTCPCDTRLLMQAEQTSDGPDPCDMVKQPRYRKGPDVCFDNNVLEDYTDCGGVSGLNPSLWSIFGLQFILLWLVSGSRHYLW

Chain of Ubc9 (P63279 whole entry, species assumed): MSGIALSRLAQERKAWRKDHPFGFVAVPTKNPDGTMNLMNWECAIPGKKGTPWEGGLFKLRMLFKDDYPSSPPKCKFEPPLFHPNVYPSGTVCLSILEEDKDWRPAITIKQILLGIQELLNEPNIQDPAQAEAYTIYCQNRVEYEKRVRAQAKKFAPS

## COc1cc(C(=O)N2CCC(c3nc4ccccc4n3Cc3cccc(F)c3)CC2)ccc1OCc1cccc(F)c1 [drawing 20]
[1]
  Penk mRNA (proenkephalin), normalized to L27 ribosomal RNA: upregulation

## Fc1ccc(Oc2ccc(CN3CCC(c4nc5ccccc5[nH]4)CC3)cc2)cc1 [AZ206, 2-(1-(4-(4-fluorophenoxy)benzyl)piperidin-4-yl)-1H-benzo[d]imidazole]
[2]
  frequency (use)-dependent decrease in current amplitude: use-dependent inhibitor; also recorded: decrease in current amplitude

## COc1cc(C(=O)N2CCC(c3nc4ccccc4n3Cc3cccc(F)c3)CC2)ccc1OCc1cccc(F)c1 [AZ194, (4-(1-(3-fluorobenzyl)-1H-benzo[d]imidazol-2-yl)piperidin-1-yl)(4-((3-fluorobenzyl)oxy)-3-methoxyphenyl)methanone]
[3]
  inhibition of NaV1.7 (concentration-response curve): nanomolar potency
[1]
  Penk mRNA (proenkephalin), normalized to L27 ribosomal RNA: upregulates; also recorded: increased
[4]
  effect on other NaV1.x channels: not affected
[4]; highest concentration of 20 μM
  effect on other NaV1.x channels: no inhibition
[5]; intrathecal injection 0.5 μg/5 μl
  paw withdrawal thresholds (PWTs): significantly increased; also recorded: significantly reversed
[5]; spinal administration, full experimental duration
  area under the curve (AUC) for PWT: reversal of mechanical allodynia
[6]
  binding to CRMP2 (STD NMR): binds
[7]; any time point versus control
  biophysical properties of inactivation: not altered
[7]; indicated incubation times
  direct block of NaV1.7 channels (normalized peak sodium current density): does not directly block
[8]
  reduction of TTX-S NaV1.7 currents: ~66%
[9]
  effect on hERG K+ currents: did not affect
[10]
  binding to Ubc9 (STD NMR): No binding was observed
[11]
  effect on peak CaV2.2 currents: no inhibition
[11]; listed as ReN 194
  effect on peak CaV2.2 currents: did not affect
